Results reported in ChEMBL document CHEMBL4811237, “Phenanthridine Derivative Host Heat Shock Cognate 70 Down-Regulators as Porcine Epidemic Diarrhea Virus Inhibitors” (J Nat Prod, 2021).
Activity calls are given as the source filed them. No cut-off for these calls is given here.

Columns and labels:
[1] = tested on: Porcine epidemic diarrhea virus; assay: Antiviral activity against PEDV (NK-2) inoculated in piglets assessed as reduction in swelling sloughing and attenuation of villi at 50 mg/kg, po administered every 24 hrs for 72 hrs by HE staining based microscopic analysis; format: functional, organism-based
[2] = tested on: Porcine epidemic diarrhea virus; assay: Antiviral activity against PEDV (NK-2) inoculated in piglets assessed as reduction in mortality at 50 mg/kg, po administered every 24 hrs for 72 hrs; format: functional, organism-based
[3] = tested on: Porcine epidemic diarrhea virus; assay: Antiviral activity against PEDV (NK-2) inoculated in piglets assessed as reduction in multifocal diffusion of villous atrophy at 50 mg/kg, po administered every 24 hrs for 72 hrs by HE staining based microscopic analysis; format: functional, organism-based
[4] = tested on: Porcine epidemic diarrhea virus; assay: Antiviral activity against PEDV 85-7 infected in Marc145 cells assessed as reduction in PDEV protein level at 10 uM after 24 hrs by indirect immunofluorescence assay; format: functional, organism-based
[5] = tested on: Porcine epidemic diarrhea virus; assay: Antiviral activity against PEDV 85-7 infected in Marc145 cells assessed as reduction in viral virion at 20 uM by plaque assay; format: functional, organism-based
[6] = tested on: Porcine epidemic diarrhea virus; assay: Antiviral activity against PEDV 85-7 infected in Marc145 cells assessed as inhibition of viral replication by measuring reduction in mRNA level at 10 uM after 24 hrs by qPCR analysis; format: functional; set-up: scale not given: the % may be the effect or the level left
[7] = tested on: Porcine epidemic diarrhea virus; assay: Antiviral activity against PEDV 85-7 infected in Marc145 cells assessed as inhibition of viral transcription after 24 hrs by qPCR analysis; format: functional, organism-based; settings: 85-7, MARC145, 24 h
[8] = Cytotoxicity against African green monkey MARC145 cells by CCK8 assay; format: cell-based; settings: chlorocebus aethiops
[9] = Selectivity index, ratio of CC50 for cytotoxicity against African green monkey MARC145 cells to EC50 for antiviral activity against PEDV 85-7; format: toxicity, cell-based; settings: read-out: Ratio CC50/EC50
MARC145 = assay: Suppression of Hsc70 expression in African green monkey Marc145 cells assessed as Hsc70 mRNA destabilization by measuring half life at 20 uM (reference value: 6.51 hrs); format: functional, cell-based; settings: Chlorocebus aethiops
[10] = tested on: Porcine epidemic diarrhea virus; assay: Antiviral activity against PEDV (NK-2) inoculated in piglets assessed as reduction in viral replication in intestine at 50 mg/kg, po administered every 24 hrs for 72 hrs by immunofluorescence assay; format: functional, organism-based
[11] = tested on: Porcine epidemic diarrhea virus; assay: Antiviral activity against PEDV 85-7 infected in Marc145 cells assessed as down regulation of Hsc70 mRNA expression at 10 uM after 24 hrs by qPCR analysis; format: functional, organism-based
[12] = tested on: Porcine epidemic diarrhea virus; assay: Antiviral activity against PEDV (NK-2) inoculated in piglets assessed as reduction in fusion of numerous villi at 50 mg/kg, po administered every 24 hrs for 72 hrs by HE staining based microscopic analysis; format: functional, organism-based
[13] = tested on: Porcine epidemic diarrhea virus; assay: Antiviral activity against PEDV 85-7 infected in Marc145 cells assessed as reduction in PEDV-N protein level at 10 uM by Western blotting analysis; format: functional, organism-based
[14] = tested on: Porcine epidemic diarrhea virus; assay: Antiviral activity against PEDV 85-7 infected in Marc145 cells assessed as reduction in PEDV-N protein level by Western blotting analysis; format: functional, organism-based; settings: dose 0.1-10 µM
[15] = tested on: Porcine epidemic diarrhea virus; assay: Antiviral activity against PEDV 85-7 infected in Marc145 cells assessed as suppression of viral assembly; format: functional, organism-based
[16] = tested on: Porcine epidemic diarrhea virus; assay: Antiviral activity against PEDV 85-7 infected in Marc145 cells expressing pEGFP-N1/Hsc70 protein assessed as decrease in PEDV-N-protein level at 20 uM after 24 hrs […]; format: functional
[17] = tested on: Porcine epidemic diarrhea virus; assay: Antiviral activity against PEDV 85-7 infected in Marc145 cells assessed as down regulation of Hsc70 protein expression after 24 hrs by Western blotting analysis; format: functional, organism-based; settings: dose 0.1-10 µM
[18] = tested on: Porcine epidemic diarrhea virus; assay: Antiviral activity against PEDV 85-7 infected in Marc145 cells expressing pEGFP-N1/Hsc70 protein assessed as decrease in viral RNA level at 20 uM after 24 hrs by qPCR analysis; format: functional

| Structure (SMILES) | Activity [1] | Activity [2] | Activity [3] | Activity [4] | Activity [5] | Activity [6] | EC50 [7] | CC50 [8] | selectivity ratio [9] | T1/2 (MARC145) | Activity [10] | Activity [11] | Activity [12] | Activity [13] | Activity [14] | Activity [15] | fold change (FC) [16] | Activity [17] | fold change (FC) [18] |
| --- | --- | --- | --- | --- | --- | --- | --- | --- | --- | --- | --- | --- | --- | --- | --- | --- | --- | --- | --- |
| CCc1cccc2c1N(C)Cc1cc(OC)c(OC)cc1-2 | Active | Active | Active | Active | Active | 70% | 1890 nM | > 100 µM | > 53 | 2.31 h | Active | Active | Active | Active |  |  |  |  |  |
| CCc1cccc2c1N(C)Cc1cc(OC(C)=O)c(OC(C)=O)cc1-2 |  |  |  |  |  | 70% | 3260 nM | > 100 µM | > 30 | 2.61 h |  | Active |  | Active |  |  |  |  |  |
| CCc1cccc2c1N(C)Cc1cc(OCc3cc(C)n(C)n3)c(OCc3cc(C)n(C)n3)cc1-2 | Active | Active | Active | Active | Active | 70% | 720 nM | > 100 µM | > 134 | 1.84 h | Active | Active | Active | Active | Dose-Dependent Effect | Active | 20.5 | Dose-Dependent Effect | 29.3 |
